# Data as given in patent US20240180153A1, “METHODS FOR MANAGING DISEASES IN CUT FLOWERS” (Niacet Corporation, priority 2022, published 2024).
# Legend:
# M. fructicola = experiment: In-vitro mycelium growth inhibition on CaP-amended PDA; format: cell-based, Monilinia fructicola; conditions: six isolates, pH 6.0, 25° C. dark
# Method: (§1) A 10% buffered (pH 6.0) stock solution in autoclaved de-ionized water was used to prepare working calcium propionate solutions. Initially, five concentrations of 0, 1, 5, 25, and 100 ppm were screened for determining the effect of calcium propionate on fungal mycelia. Higher concentrations of 300, 900, 2700, and 8100 ppm were also tested in mycelium growth inhibition assays to determine EC50 values for isolates sensitive and resistant to FRAC codes 1, 2, 7, 9, 11, 12, 13, and 17 (i.e., benzimidazoles, quinone outside inhibitors, dicarboxamides, succinate dehydrogenases, phenylpyrroles, demethylation inhibitor fungicides, and anilinopyrimidines respectively).
# (§2) To prepare different concentrations, calculated amount of stock solution was mixed in autoclaved (121 C for 20 mins) potato dextrose agar (PDA) after the media cooled down to appropriate temperature. […] Mycelium growth diameter was measured using a vernier caliper just before the mycelium growth of two colonies in the control media plate overlapped. […] Mycelium inhibition rates were calculated and EC50 values were determined. Additionally, the fungistatic activity of calcium propionate was determined at 8000 mg/L (0.8%; pH 6.0) concentration, buffered at pH 6 with acetic acid. […] Mycelium growth was recorded every 24 h using a vernier caliper until fungal mycelia in control treatments reached the 90 mm in diameter petri dish rim.
# [1] = system: all four pathogens (B. cinerea, M. fructicola, A. alternata, C. siamense); experiment: In-vitro mycelium growth inhibition, statements pooled over all four pathogens; format: cell-based
# Method: as §1
# To prepare different concentrations, calculated amount of stock solution was mixed in autoclaved (121 C for 20 mins) potato dextrose agar (PDA) after the media cooled down to appropriate temperature. Amended media with different CaP concentrations was poured in to 15×100 mm petri dishes (VWR International, LLC., Radnor, PA), and left to solidify. For mycelium growth, 5 mm plugs were obtained from the edges of freshly grown seven-day old cultures from all 24 isolates of different fungal genera including Alternaria sp., Botrytis sp., Colletotrichum sp., and Monilinia sp. (Table 1). Two culture plugs of each isolate were placed near opposite edges of individual CaP amended PDA media plates. The media plates with no CaP (0 ppm) served as control treatment. Inoculated plates were then incubated at 25° C. in dark for 7-10 days. Mycelium growth diameter was measured using a vernier caliper just before the mycelium growth of two colonies in the control media plate overlapped. […] Mycelium inhibition rates were calculated and EC50 values were determined. Additionally, the fungistatic activity of calcium propionate was determined at 8000 mg/L (0.8%; pH 6.0) concentration, buffered at pH 6 with acetic acid. […] Mycelium growth was recorded every 24 h using a vernier caliper until fungal mycelia in control treatments reached the 90 mm in diameter petri dish rim.
# C. siamense = experiment: In-vitro mycelium growth inhibition on CaP-amended PDA; format: cell-based, Colletotrichum siamense
# Method: as §1, §2
# cut roses = experiment: Phytotoxicity on cut roses after submerging flower-head; format: in vivo, cultivar Orange Crush
# Method: (§3) Calcium propionate concentrations of 0.1%, 0.2%, 0.3%, 0.5%, 0.75%, 1% (pH 6.0), were prepared and tested against Botrytis blight on cut roses. Treatments were applied by submerging flower-head of 15 sec in the solutions of the treatments and gently moving the flowers up and down to allow the petals to open and help the product get in touch with the most internal petals. Then, the flowers were placed vertically in open PVC boxes over heavy-duty thermoformed trays (Greenhouse Megastore, Danville, IL) containing 3 L of water. The boxes and trays were placed inside open humid chambers for 24 h, then the flowers were sprayed with a Botrytis cinerea spore suspension at 10^5 spores/ml from the previously characterized isolate S4GBR4O (Muñoz et al., 2019). The humid chambers were closed, and data collection of disease severity was taken 3, 5, and 7 days after the inoculation. Relative humidity in the humid chambers was maintained in a range of 97-100% which was verified using a psychrometer (RH300, Extech Instruments, Nashua, NH, US). Observational data on phytotoxicity symptoms were also collected. Additionally, an inoculated control, Pydiflumethophen+Fludioxonil (sold under the trademark MIRAVIS™ PRIME; Syngenta, Raleigh, NC), and a non-inoculated treatment were included in the evaluation. The experiment with CaP treatments of 0.5%, 0.75%, and 1% (pH 6.0) were conducted only once due to phytotoxicity issues. All lower dose treatments were performed twice.
# B. cinerea = experiment: In-vitro mycelium growth inhibition on CaP-amended PDA; format: cell-based, Botrytis cinerea; conditions: six isolates, pH 6.0, 25° C. dark
# Method: as §1, §2
# [2] = system: Botrytis cinerea isolate S4GBR4O; experiment: Botrytis blight severity on cut roses after submerging flower-head; format: in vivo
# Method: as §3
# petunia flowers = experiment: Phytotoxicity on harvested petunia flowers after spray application; format: in vivo, Petuniaxhybrida 'Dreams burgundy picotee'
# Method: (§4) Calcium propionate concentrations were prepared by adding appropriate amounts in de-ionized water and tested in four separate experiments. Spray applications at 1.25%, 2.5%, and 5% (pH 7.7 and buffered with acetic acid to pH 6.5) (first experiment) and 0.5%, 0.75%, and 1% buffered with acetic acid to pH 6.5 (second experiment) were made on harvested open petunia flowers. Separately, spray applications at 0.1%, 0.2%, 0.3%, (third experiment) 0.5%, 0.75%, and 1% (fourth experiment) buffered with acetic acid to pH 6.5 were made on harvested open petunia flowers. Approximately 24 hours after spray applications, the flowers were arranged in humid chambers maintaining relative humidity of 98-100% and inoculated by spraying spore suspension (10^4 spores/ml) of B. cinerea isolate PDRK3 (Bennett et al. 2019). Fungicide applications and spore suspensions were misted onto flowers until runoff to completely cover the flower using a 4 oz clear PET plastic bullet bottle with white mist sprayer (The Cary Company, Addison, IL). The petunia flowers were evaluated 72 h after inoculation to observe botrytis blight severity and phytotoxicity using ratings from 0 to 8 scale based on the area of infected corolla (0=no infection; 8=complete necrosis), modified from Bennett (2019). Pydiflumethophen+fludioxonil (sold under the trademark MIRAVIS™ PRIME; Syngenta, Raleigh, NC) was used as a commercial fungicide control along with a non-inoculated and an inoculated control. Ten flowers were evaluated per treatment and the entire experiment was repeated twice.
# A. alternata = experiment: In-vitro mycelium growth inhibition on CaP-amended PDA; format: cell-based, Alternaria alternata
# Method: as §1, §2
# B. cinerea isolate PDRK3 = experiment: Botrytis blight severity on harvested petunia flowers after spray application; format: in vivo, Botrytis cinerea
# Method: as §4
# [3] = 8000 ppm (0.8%; pH 6.0), after 2-4 days, growth rate reaching untreated control
# [4] = six isolates, amended PDA, pH 6.0, 25° C. dark
smiles,measurement,setting,value
"CCC(=O)[O-].CCC(=O)[O-].[Ca+2] [CaP, calcium propionate]",mean EC50 mycelium growth,M. fructicola,618.25 µg/mL
same,mycelium growth inhibition,"[1]; 8000 ppm (0.8%; pH 6.0), after 2-4 days of incubation",~100%
same,maximum inhibition of fungal mycelium growth,"[1]; CaP 1, 5, 25, and 100 mg/L, preliminary experiments",below 20%
same,mean EC50 of fungicide-sensitive versus fungicide-resistant isolates,[1]; isolates sensitive vs resistant to commonly used FRAC groups,not significantly different
same,mycelium growth recovery after initial inhibition,C. siamense; [3],recovered quickly
same,mean EC50 mycelium growth,C. siamense; [4],1310.34 µg/mL
same,phytotoxicity,cut roses; 0.1% CaP (pH 6.0),no to barely noticeable phytotoxicity
same,phytotoxicity symptoms,cut roses; 0.3% and 0.2% CaP (pH 6.0),minor symptoms of phytotoxicity
same,size of phytotoxicity spots,cut roses; 0.3% and 0.2% CaP (pH 6.0),1-2 mm
same,phytotoxicity symptoms,"cut roses; 0.5% CaP (pH 6.0) and higher, rounded areas in outermost petals, discolored edges",phytotoxicity symptoms were observed
same,mean EC50 mycelium growth,B. cinerea,527.77 µg/mL
same,"botrytis blight severity, difference to inoculated control","[2]; first rose experiment, 0.5%, 0.75%, and 1% CaP (pH 6.0)",No statistical differences
same,efficacy against botrytis blight compared to grower standard,"[2]; second rose experiment, 0.1% (pH 6.0) CaP",as effective as the grower standard Miravis Prime
same,efficacy against botrytis blight compared to 0.3% CaP,"[2]; second rose experiment, 0.1% CaP (pH 6.0)",significantly higher efficacy
same,phytotoxicity,"petunia flowers; experiment three, 0.1% (pH 6.5)",barely noticeable
same,"phytotoxicity, difference to untreated control","petunia flowers; experiment three, 0.1% CaP (pH 6.5)",no significant difference
same,phytotoxicity,"petunia flowers; experiment three, lower concentrations 0.1%-0.3% (pH 6.5)",very little to no phytotoxicity
same,phytotoxicity,"petunia flowers; experiment two, 0.5% (pH 6.5)",barely noticeable
same,phytotoxicity,"petunia flowers; experiment two, 0.75% and 1% (pH 6.5)",noticeable phytotoxicity
same,phytotoxicity (bleaching of petunia flower tissue),"petunia flowers; first experiment, 1.25%, 2.5%, and 5% CaP (pH 6.5 and 7.7)",Evidence of phytotoxicity was observed
same,phytotoxicity (bleaching of petunia flower tissue),"petunia flowers; fourth experiment, 0.5%, 0.75%, and 1% CaP (pH 6.5), increased with increasing concentrations",Evidence of phytotoxicity was observed
same,mycelium growth recovery after initial inhibition,A. alternata; [3],recovered quickly
same,mean EC50 mycelium growth,A. alternata; [4],1354.87 µg/mL
same,control efficacy with increase in concentration,"B. cinerea isolate PDRK3; 0.75% to 1% (fourth experiment) and 0.1% to 0.3% (third experiment), pH 6.5",did not correspond to an increase in control efficacy
same,disease severity,"B. cinerea isolate PDRK3; experiment three, all CaP treatments 0.1%, 0.2%, 0.3% (pH 6.5)",reduced disease severity
same,botrytis blight control compared to the 0.5% treatment,"B. cinerea isolate PDRK3; experiment two, 0.75% and 1.0% CaP (pH 6.5)",significantly better control
same,disease severity,"B. cinerea isolate PDRK3; experiment two, all CaP treatments 0.5%, 0.75%, 1% (pH 6.5)",reduced disease severity
same,"botrytis blight control, lower pH vs higher pH treatment","B. cinerea isolate PDRK3; first experiment, 1.25% CaP, pH 6.5 compared to pH 7.7",significantly better control
same,control efficacy with increase in concentration,"B. cinerea isolate PDRK3; first experiment, increase from 1.25% to 5%",did not correspond to an increase in control efficacy
same,botrytis blight severity vs inoculated control,"B. cinerea isolate PDRK3; first experiment, spray 1.25%, 2.5%, and 5% (pH 6.5 and 7.7), 72 h after inoculation",reduced botrytis blight compared to the inoculated control
same,botrytis blight severity vs inoculated control,"B. cinerea isolate PDRK3; third and fourth experiments, all CaP concentrations 0.1%-1% at pH 6.5",reduced botrytis blight compared to the inoculated control
